Values of other authors as cited in patent publication US8354388B2, “Inhibitors of MRP4 for the treatment of vascular disorders” (INSERM (Institut National de la Sante et de la Recherche …, priority 2007, dated 2013).

Target: T1, MRP4 (Homo sapiens, UniProt O15439)
T1 sequence (O15439 1-1325): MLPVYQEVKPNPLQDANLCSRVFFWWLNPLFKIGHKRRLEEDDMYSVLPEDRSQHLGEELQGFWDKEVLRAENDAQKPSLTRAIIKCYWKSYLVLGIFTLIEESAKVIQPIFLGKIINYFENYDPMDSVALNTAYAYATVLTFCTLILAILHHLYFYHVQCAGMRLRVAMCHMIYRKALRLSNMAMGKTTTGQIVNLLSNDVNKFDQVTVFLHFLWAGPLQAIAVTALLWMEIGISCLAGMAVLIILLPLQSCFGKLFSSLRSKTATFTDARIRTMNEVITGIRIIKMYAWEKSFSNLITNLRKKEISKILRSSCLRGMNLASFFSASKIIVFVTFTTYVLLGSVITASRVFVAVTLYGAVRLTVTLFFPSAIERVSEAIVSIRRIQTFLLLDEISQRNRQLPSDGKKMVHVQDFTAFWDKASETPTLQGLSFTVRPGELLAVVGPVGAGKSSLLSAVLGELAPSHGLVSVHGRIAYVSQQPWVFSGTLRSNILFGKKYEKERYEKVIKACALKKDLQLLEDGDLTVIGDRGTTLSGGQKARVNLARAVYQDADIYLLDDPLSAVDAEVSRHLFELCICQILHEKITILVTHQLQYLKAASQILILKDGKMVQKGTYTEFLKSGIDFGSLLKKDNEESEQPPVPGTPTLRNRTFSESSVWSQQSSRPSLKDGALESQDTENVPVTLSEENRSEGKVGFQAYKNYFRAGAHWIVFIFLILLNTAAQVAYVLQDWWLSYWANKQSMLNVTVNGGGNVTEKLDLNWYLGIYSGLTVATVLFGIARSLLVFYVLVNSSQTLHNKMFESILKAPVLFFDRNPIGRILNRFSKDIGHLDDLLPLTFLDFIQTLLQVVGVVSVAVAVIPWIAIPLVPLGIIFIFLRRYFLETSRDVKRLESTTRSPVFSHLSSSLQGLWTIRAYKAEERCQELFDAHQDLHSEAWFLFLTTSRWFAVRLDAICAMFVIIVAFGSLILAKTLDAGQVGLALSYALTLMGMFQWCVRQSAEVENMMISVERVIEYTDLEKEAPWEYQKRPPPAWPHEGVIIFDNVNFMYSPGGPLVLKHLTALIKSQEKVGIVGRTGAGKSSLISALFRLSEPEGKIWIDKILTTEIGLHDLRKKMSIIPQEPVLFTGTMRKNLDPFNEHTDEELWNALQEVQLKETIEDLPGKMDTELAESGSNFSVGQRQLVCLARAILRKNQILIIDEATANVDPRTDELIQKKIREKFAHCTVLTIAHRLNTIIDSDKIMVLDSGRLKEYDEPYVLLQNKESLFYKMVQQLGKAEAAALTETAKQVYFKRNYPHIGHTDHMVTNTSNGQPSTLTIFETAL
Details: literature reference 41; cited from earlier work

For CCCc1nn(C)c2c(=O)[nH]c(-c3cc(S(=O)(=O)N4CCN(C)CC4)ccc3OCC)nc12 [Sildenafil], which “reported MRP4 inhibition” value is on record?
Its value is “MRP4 inhibitor”.
